Test results reported in patent publication US4355026A, “4-Demethoxy,11-deoxy anthracycline derivatives” (priority 1980, dated 1982).
≈ marks a conversion by molar mass, not a printed value. Where two headings read alike, the source gives them in different places.

Assays:
[1] = tested on: L1210 leukemia cells; experiment: Inhibitory effect on growth of L1210 cultivated leukemic cells of mice; format: cell-based; settings: Mus musculus, RPMI 1640, 20% calf serum, 37° C.
Description: (§1) A. Inhibitory Effect on Growth, DNA Synthesis and RNA Synthesis of L1210 Cultivated Leukemic Cells of Mice
For example, L1210 cells were inoculated in a concentration of 5×10^4 cells/ml in an RPMI 1640 culture medium (Roswell Park Memorial Institute 1640) containing 20% calf serum and, simultaneously, representative compounds of the present invention were added in a concentration of 0.1 and 0.5 μg/ml. The cells were cultivated in a CO2 generator at 37° C. The 50% growth inhibitory concentration with respect to a control group was then determined.

[2] = tested on: L1210 leukemia cells; experiment: Antitumor activity on CDFI mouse leukemia induced by mouse L1210 leukemia cells; format: in vivo, CDFI mice; settings: intraperitoneal, 10 consecutive days
Description: B. Antitumor Activity on CDFI Mouse Leukemia Induced by Mouse L1210 Leukemia cells
L1210 leukemia cells of mice were intraperitoneally transplanted in an amount of 1×10^5 cells/mouse in CDFI mice. Starting 24 hours after the transplantation, each of the test compounds was intraperitoneally administered to the mice for 10 consecutive days. the survival rate (T/C, %) was calculated in comparison with a control group (to which physiological saline was administered).

[3] = tested on: Microccus lysodeikticus IFQ 3333; experiment: MIC on nutrient agar medium; format: cell-based
Description: (§2) The compounds of formula I provided by the present invention are also characterized by their antimicrobial activity. Table 3 summarizes the minimum inhibitory concentrations (MIC) of representative compounds of the present invention against various microorganisms on a nutrient agar medium.

[4] = tested on: Bacillus subtilis PCI 219; experiment: MIC on nutrient agar medium; format: cell-based; settings: PCI219
Description: as §2

[5] = tested on: Staphylococcus aureus smith; experiment: MIC on nutrient agar medium; format: cell-based
Description: as §2

[6] = tested on: Staphylococcus aureus FDA 209; experiment: MIC on nutrient agar medium; format: cell-based; settings: FDA209
Description: as §2

[7] = tested on: Candida albicans 3147; experiment: MIC on nutrient agar medium; format: cell-based
Description: as §2

[8] = tested on: Mycobacterium smegmatis ATCC 607; experiment: MIC on nutrient agar medium; format: cell-based; settings: Mycolicibacterium smegmatis, ATCC607
Description: as §2

[9] = tested on: Salmonella typhi T - 63; experiment: MIC on nutrient agar medium; format: cell-based; settings: Salmonella enterica
Description: as §2

[10] = tested on: Klebsiella pneumonia PCI 602; experiment: MIC on nutrient agar medium; format: cell-based; settings: Klebsiella pneumoniae, PCI602
Description: as §2

[11] = tested on: Sarcina lutea PCI 1001; experiment: MIC on nutrient agar medium; format: cell-based; settings: Micrococcus luteus, PCI1001
Description: as §2

[12] = tested on: Bacillus cereus ATCC 10702; experiment: MIC on nutrient agar medium; format: cell-based; settings: ATCC10702
Description: as §2

[13] = tested on: Microccus flavus FDA 16; experiment: MIC on nutrient agar medium; format: cell-based
Description: as §2

[14] = tested on: Escherichia coli NIHJ; experiment: MIC on nutrient agar medium; format: cell-based
Description: as §2

[15] = tested on: Bacillus subtilis NRRB- 558; experiment: MIC on nutrient agar medium; format: cell-based; settings: NRRB558
Description: as §2

[16] = tested on: Shigella flexneri 46 JS 11811; experiment: MIC on nutrient agar medium; format: cell-based; settings: 46JS11811
Description: as §2

[17] = tested on: Pseudomonas aeruginosa A3; experiment: MIC on nutrient agar medium; format: cell-based
Description: as §2

[18] = tested on: Bacillus megatherium APF; experiment: MIC on nutrient agar medium; format: cell-based
Description: as §2

[19] = tested on: Corynebacterium bovis 1810; experiment: MIC on nutrient agar medium; format: cell-based
Description: as §2

[20] = tested on: L1210 leukemia cells, DNA synthesis; experiment: Inhibition of DNA synthesis (14C-thymidine incorporation) of L1210 cultivated leukemic cells; format: cell-based; settings: Mus musculus, L1210, 1 h, 14C-thymidine, 60 minutes, 37° C.; for IC50: read-out: IC50 DNA synthesis; for IC90: 90% inhibition, read-out: IC90 DNA synthesis
Description: as §1
(§3) Separately, the above L1210 cultivated cells were suspended in a concentration of 5×10^5 cells/ml in an RPMI 1640 medium containing 10% calf serum and cultivated for 1 to 2 hours in a CO2 incubator at 37° C. Then, representative test compounds were added in various concentrations, and 15 minutes later, ^14 C-uridine (0.05 μCi/ml) or ^14 C-thymidine (0.05 μCi/ml) were added. The cells were incubated at 37° C. for 60 minutes. A 10% aqueous trichloroacetic acid solution was added to the incubation medium to stop the reaction and simultaneously precipitate acid-insoluble matter. The acid-insoluble matter was washed three times with a 5 to 10% aqueous solution of trichloroacetic acid and then dissolved in formic acid. The radioactivity of the acid-insoluble matter was measured. From the ratio of incorporated radiation to that of a control group, the concentrations which inhibited radiation by 10%, 50% and 90% respectively were measured.

[21] = tested on: L1210 leukemia cells, RNA synthesis; experiment: Inhibition of RNA synthesis (14C-uridine incorporation) of L1210 cultivated leukemic cells; format: cell-based; settings: Mus musculus, L1210, 1 h, 14C-uridine, 60 minutes, 37° C.; for IC50: read-out: IC50 RNA synthesis; for IC90: 90% inhibition, read-out: IC90 RNA synthesis
Description: as §1, §3

[22] = L1210, 24 h, 1 day later, read-out: IC50 growth, 1 day later
[23] = L1210, 48 h, 2 days later, read-out: IC50 growth, 2 days later

Compound | IC50 [1, 22] [µg/mL] | IC50 [1, 23] [µg/mL] | MIC [3] [µg/mL] | MIC [4] [µg/mL] | MIC [5] [µg/mL] | MIC [6] [µg/mL] | MIC [7] [µg/mL] | MIC [8] [µg/mL] | MIC [9] [µg/mL] | MIC [10] [µg/mL] | MIC [11] [µg/mL] | MIC [12] [µg/mL] | MIC [13] [µg/mL] | MIC [14] [µg/mL] | MIC [15] [µg/mL] | MIC [16] [µg/mL] | IC50 [20] [µg/mL] | IC90 [20] [µg/mL] | IC50 [21] [µg/mL] | IC90 [21] [µg/mL] | further results
CC(=O)[C@]1(O)Cc2cc3c(c(O)c2[C@@H](O[C@H]2C[C@H](N)[C@H](O)[C@H](C)O2)C1)C(=O)c1ccccc1C3=O (single isomer, unassigned; isomer 4) [4-Demethoxy-11-deoxy-daunomycin (7S,9S,1'α)isomer, 4-Demethoxy-11-deoxydaunomycin] | 0.09 (≈ 0.187 µM) | 0.01 (≈ 0.0208 µM) | 12.5 (≈ 26 µM) | 3.12 (≈ 6.48 µM) | 12.5 (≈ 26 µM) | 25 (≈ 51.9 µM) | 100 (≈ 208 µM) | 12.5 (≈ 26 µM) | > 100 | 100 (≈ 208 µM) | 6.25 (≈ 13 µM) | 12.5 (≈ 26 µM) | 6.25 (≈ 13 µM) | > 100 | 6.25 (≈ 13 µM) | 100 (≈ 208 µM) | 0.22 (≈ 0.457 µM) | 2.5 (≈ 5.19 µM) | 0.34 (≈ 0.706 µM) | 2.5 (≈ 5.19 µM) | Survival rate (T/C, %) ([2]; 0.15 mg/kg/day): 103%; Survival rate (T/C, %) ([2]; 0.3 mg/kg/day): 115%; Survival rate (T/C, %) ([2]; 0.6 mg/kg/day): 115%; Survival rate (T/C, %) ([2]; 1.25 mg/kg/day): 135%; Survival rate (T/C, %) ([2]; 2.5 mg/kg/day): 160%; MIC [17]: > 100 µg/mL; MIC [18]: 6.25 µg/mL (≈ 13 µM); MIC [19]: 6.25 µg/mL (≈ 13 µM)
C[C@@H]1O[C@@H](O[C@H]2C[C@](O)(C(=O)CO)Cc3c(O)c4c(c(O)c32)C(=O)c2ccccc2C4=O)C[C@H](N)[C@@H]1O [4-Demethoxy-adriamycin, reference compound] | 0.02 (≈ 0.0389 µM) | 0.006 (≈ 0.0117 µM) |  |  |  |  |  |  |  |  |  |  |  |  |  |  | 1.6 (≈ 3.12 µM) | 10 (≈ 19.5 µM) | 1.2 (≈ 2.34 µM) | 6 (≈ 11.7 µM) | 
CC(=O)[C@]1(O)Cc2c(O)c3c(c(O)c2[C@@H](O[C@H]2C[C@H](N)[C@H](O)[C@H](C)O2)C1)C(=O)c1ccccc1C3=O [4-Demethoxy-daunomycin, reference compound] | 0.01 (≈ 0.0201 µM) | 0.005 (≈ 0.0101 µM) |  |  |  |  |  |  |  |  |  |  |  |  |  |  | 0.08 (≈ 0.161 µM) | 1.2 (≈ 2.41 µM) | 0.14 (≈ 0.281 µM) | 1.4 (≈ 2.81 µM) | 
CC(=O)[C@@]1(O)Cc2cc3c(c(O)c2[C@H](O[C@@H]2C[C@H](N)[C@H](O)[C@H](C)O2)C1)C(=O)c1ccccc1C3=O (single isomer, unassigned; isomer 4) [4-Demethoxy-11-deoxy-daunomycin (7R,9R,1'β )isomer, 4-Demethoxy-11-deoxydaunomycin] | 2 (≈ 4.15 µM) | 1.25 (≈ 2.6 µM) |  |  |  |  |  |  |  |  |  |  |  |  |  |  | 4.5 (≈ 9.35 µM) | 15 (≈ 31.2 µM) | 5 (≈ 10.4 µM) | 13 (≈ 27 µM) | 
CC(=O)[C@@]1(O)Cc2cc3c(c(O)c2[C@H](O[C@H]2C[C@H](N)[C@H](O)[C@H](C)O2)C1)C(=O)c1ccccc1C3=O (single isomer, unassigned; isomer 4) [4-Demethoxy-11-deoxy-daunomycin (7R,9R,1'α)isomer, 4-Demethoxy-11-deoxydaunomycin] | > 2.5 | > 2.5 | > 100 | 100 (≈ 208 µM) | > 100 | > 100 | > 100 | 100 (≈ 208 µM) | > 100 | > 100 | 50 (≈ 104 µM) | 50 (≈ 104 µM) | > 100 | > 100 | 50 (≈ 104 µM) | > 100 | 5.4 (≈ 11.2 µM) | 13 (≈ 27 µM) | 9 (≈ 18.7 µM) | > 10 | MIC [17]: > 100 µg/mL; MIC [18]: 50 µg/mL (≈ 104 µM); MIC [19]: 100 µg/mL (≈ 208 µM)
